Active and inactive are the calls of the source.
Experiments:
[1] = biological target: T1, Short transient receptor potential channel 4 (Mus musculus, UniProt Q9QUQ5); assay: mouse TRPC4 channel inhibitors, dose response, cell-based, HEK293 TRPC4/mu-opioid, Fluo-4 calcium (AID 434942); type: functional;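 further: potency of inhibitors blocking the TRPC4 calcium response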
T1 sequence (Q9QUQ5 whole entry): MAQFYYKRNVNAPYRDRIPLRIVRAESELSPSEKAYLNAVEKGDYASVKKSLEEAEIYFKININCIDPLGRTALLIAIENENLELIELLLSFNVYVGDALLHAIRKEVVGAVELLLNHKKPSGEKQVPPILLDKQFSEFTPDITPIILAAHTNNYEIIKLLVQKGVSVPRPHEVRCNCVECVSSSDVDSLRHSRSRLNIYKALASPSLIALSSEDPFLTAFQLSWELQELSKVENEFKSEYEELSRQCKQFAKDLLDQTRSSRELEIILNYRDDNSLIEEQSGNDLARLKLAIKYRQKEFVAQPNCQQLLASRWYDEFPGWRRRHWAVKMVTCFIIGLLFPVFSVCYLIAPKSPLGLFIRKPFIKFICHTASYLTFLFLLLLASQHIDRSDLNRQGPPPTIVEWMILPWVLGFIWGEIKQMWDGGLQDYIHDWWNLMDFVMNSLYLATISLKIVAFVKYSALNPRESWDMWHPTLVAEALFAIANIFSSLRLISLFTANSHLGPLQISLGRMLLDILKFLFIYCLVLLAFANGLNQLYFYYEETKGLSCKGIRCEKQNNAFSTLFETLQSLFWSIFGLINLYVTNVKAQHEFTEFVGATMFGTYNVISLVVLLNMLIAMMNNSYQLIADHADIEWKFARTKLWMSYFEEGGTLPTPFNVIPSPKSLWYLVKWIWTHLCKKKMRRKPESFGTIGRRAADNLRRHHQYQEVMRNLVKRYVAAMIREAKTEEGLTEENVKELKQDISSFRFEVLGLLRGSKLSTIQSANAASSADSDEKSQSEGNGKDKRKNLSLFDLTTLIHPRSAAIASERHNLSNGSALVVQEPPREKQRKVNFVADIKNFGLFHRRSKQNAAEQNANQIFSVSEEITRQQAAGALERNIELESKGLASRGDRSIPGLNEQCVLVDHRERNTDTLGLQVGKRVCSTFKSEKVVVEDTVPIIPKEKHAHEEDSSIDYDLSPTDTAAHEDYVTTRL

[2] = biological target: Voltage-dependent T-type calcium channel subunit alpha-1H (Homo sapiens, UniProt O95180); type: functional;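 further: channel activity triggered by adding a high calcium stimulation buffer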
Sequence of Voltage-dependent T-type calcium channel subunit alpha-1H (O95180 whole entry): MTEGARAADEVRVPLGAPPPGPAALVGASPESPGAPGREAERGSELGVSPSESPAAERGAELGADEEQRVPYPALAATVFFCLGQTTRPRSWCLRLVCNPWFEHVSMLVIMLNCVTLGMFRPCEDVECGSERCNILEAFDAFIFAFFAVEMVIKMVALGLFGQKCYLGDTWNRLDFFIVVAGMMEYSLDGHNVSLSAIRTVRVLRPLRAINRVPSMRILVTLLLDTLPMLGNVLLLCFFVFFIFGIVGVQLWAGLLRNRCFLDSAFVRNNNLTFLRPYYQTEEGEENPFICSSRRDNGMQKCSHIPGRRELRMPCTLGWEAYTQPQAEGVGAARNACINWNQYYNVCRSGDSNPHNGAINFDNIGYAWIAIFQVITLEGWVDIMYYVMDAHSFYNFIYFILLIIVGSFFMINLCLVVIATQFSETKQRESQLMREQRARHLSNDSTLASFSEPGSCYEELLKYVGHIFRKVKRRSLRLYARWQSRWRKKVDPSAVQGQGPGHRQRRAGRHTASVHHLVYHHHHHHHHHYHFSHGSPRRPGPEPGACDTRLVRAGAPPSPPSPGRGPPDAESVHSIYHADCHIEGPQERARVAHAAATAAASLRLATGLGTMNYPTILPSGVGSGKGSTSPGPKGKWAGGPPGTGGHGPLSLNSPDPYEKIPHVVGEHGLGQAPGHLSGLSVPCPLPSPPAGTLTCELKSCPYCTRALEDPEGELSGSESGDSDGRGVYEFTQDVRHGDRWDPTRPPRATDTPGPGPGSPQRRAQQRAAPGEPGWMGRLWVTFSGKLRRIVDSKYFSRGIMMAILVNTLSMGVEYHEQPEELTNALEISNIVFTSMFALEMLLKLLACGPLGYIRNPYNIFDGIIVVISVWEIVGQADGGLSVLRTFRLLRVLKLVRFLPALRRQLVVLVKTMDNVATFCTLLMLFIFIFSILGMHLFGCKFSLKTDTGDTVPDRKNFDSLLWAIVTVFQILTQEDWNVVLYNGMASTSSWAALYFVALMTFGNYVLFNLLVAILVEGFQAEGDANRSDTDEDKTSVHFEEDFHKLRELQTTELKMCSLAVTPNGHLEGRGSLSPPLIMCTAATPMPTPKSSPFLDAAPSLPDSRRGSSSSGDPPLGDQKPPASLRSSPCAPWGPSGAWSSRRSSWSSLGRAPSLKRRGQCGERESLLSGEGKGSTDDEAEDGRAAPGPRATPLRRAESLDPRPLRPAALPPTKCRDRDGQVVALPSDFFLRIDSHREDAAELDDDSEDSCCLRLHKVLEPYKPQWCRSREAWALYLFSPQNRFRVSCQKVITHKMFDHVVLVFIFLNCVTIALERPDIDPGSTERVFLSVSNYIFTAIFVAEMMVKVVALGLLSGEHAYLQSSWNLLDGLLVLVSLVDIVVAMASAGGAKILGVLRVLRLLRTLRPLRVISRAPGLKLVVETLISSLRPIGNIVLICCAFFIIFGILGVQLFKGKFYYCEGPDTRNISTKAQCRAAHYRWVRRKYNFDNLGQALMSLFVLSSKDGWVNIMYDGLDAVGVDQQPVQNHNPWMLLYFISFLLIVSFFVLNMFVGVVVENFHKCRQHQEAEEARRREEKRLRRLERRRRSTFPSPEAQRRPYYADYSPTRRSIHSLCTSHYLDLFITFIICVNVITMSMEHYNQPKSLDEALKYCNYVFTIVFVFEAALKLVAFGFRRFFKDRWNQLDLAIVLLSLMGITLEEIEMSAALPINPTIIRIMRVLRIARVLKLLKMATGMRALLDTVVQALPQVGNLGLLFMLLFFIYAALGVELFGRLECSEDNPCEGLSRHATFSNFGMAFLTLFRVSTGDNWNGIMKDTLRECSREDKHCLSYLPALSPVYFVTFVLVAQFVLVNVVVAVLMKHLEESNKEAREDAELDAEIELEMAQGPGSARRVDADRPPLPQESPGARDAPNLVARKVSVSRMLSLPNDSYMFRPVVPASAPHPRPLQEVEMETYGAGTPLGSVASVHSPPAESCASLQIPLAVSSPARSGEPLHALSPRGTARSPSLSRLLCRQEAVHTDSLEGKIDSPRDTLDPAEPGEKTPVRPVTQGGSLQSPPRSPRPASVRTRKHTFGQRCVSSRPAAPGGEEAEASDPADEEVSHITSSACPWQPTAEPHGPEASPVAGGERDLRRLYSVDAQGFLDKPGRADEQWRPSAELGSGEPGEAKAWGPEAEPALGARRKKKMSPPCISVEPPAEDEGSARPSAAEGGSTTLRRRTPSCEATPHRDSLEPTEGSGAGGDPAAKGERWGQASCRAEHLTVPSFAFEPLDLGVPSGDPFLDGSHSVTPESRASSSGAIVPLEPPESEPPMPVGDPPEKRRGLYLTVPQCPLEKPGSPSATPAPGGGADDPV

[3] = biological target: T2, High affinity choline transporter 1 (Homo sapiens, UniProt Q9GZV3); assay: CHT inhibitors, dose response, cell-based, 5-point CRC, membrane potential dye (AID 504840); type: functional
T2 sequence (Q9GZV3 whole entry): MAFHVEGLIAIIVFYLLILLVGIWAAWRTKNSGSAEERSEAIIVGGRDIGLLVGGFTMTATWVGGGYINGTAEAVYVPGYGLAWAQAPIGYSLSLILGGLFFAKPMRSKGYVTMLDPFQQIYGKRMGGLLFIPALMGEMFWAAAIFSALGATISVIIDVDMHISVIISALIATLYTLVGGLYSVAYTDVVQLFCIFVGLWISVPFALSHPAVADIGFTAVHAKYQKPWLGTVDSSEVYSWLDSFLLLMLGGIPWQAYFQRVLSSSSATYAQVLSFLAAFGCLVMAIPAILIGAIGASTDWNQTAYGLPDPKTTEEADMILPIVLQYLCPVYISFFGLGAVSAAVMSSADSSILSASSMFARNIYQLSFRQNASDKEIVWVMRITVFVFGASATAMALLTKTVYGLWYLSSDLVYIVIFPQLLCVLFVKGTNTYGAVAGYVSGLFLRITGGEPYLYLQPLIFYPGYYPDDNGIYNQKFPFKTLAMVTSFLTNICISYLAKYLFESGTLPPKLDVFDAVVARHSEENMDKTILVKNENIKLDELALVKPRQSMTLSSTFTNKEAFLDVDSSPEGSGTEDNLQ

[4] = HEp-2 cell cytotoxicity, dose response, cytotoxicity control for RSV inhibitor project, HTS (AID 2410); type: functional; details: human respiratory syncytial virus
[5] = biological target: T3, Microphthalmia-associated transcription factor (Homo sapiens, UniProt O75030); assay: TRPM1 promoter luciferase signal decrease, dose response, MITF inhibitor project, cell-based, SK-MEL-5, cherry-picked, set 3 (AID 493073); type: functional
T3 sequence (O75030 whole entry): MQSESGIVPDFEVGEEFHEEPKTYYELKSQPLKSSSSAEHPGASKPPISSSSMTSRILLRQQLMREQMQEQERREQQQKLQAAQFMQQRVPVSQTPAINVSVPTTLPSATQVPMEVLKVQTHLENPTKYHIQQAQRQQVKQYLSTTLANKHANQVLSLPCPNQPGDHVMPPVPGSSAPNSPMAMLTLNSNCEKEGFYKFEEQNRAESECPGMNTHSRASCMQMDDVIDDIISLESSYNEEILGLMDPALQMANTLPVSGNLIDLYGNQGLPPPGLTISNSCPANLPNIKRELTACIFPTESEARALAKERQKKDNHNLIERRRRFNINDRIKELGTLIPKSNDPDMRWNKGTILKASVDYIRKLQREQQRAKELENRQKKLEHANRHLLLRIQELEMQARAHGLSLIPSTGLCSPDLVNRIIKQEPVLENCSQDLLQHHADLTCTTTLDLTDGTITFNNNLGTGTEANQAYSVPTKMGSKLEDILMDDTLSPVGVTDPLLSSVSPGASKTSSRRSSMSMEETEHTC

[6] = biological target: Induced myeloid leukemia cell differentiation protein Mcl-1 (Homo sapiens, UniProt Q07820); type: functional
Sequence of Induced myeloid leukemia cell differentiation protein Mcl-1 (Q07820 whole entry): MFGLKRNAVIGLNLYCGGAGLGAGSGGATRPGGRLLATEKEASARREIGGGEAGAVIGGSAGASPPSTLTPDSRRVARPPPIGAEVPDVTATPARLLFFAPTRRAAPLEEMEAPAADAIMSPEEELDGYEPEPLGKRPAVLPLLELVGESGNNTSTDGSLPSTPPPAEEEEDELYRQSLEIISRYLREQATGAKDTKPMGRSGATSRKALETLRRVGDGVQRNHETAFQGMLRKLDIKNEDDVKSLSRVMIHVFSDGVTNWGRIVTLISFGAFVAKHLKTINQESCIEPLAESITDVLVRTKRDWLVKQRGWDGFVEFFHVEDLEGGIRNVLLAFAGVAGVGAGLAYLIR

[7] = Luminescence Cell-Based Dose Confirmation HTS to Identify Activators of 5'UTR Stem-Loop Driven Alpha-Synuclein mRNA Translation in H4 Neuroglioblastoma Cells. [Related pubchem assays: 1829 (Project Summary), 1814 (Primary HTS)]; type: functional
[8] = Luminescence Cell-Based Dose Response HTS to Identify Activators of Luciferase Translation or Activity in H4 […] Cells. [Related pubchem assays: 1829 (Project Summary), 1814 (Primary HTS)]; type: functional
H4 = assay: Luminescence Cell-Based Dose Response HTS to Identify Activators of 5'UTR Stem-Loop Driven Prion Protein mRNA Translation in H4 Neuroglioblastoma Cells. [Related pubchem assays: 1829 (Project Summary), 1814 (Primary HTS)]; type: functional; details: Homo sapiens
[9] = biological target: T4, Heat shock factor protein 1 (Mus musculus, UniProt P38532); assay: inhibition of MG132-induced HSE-luciferase signal, confirmation, cell-based, NIH3T3, luminescence, dose retest (AID 2382); type: functional;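 further: NIH3T3 fibroblasts with HSF1-driven luciferase reporter stressed by proteasome inhibitor MG132; luminescence from HSF1-driven luciferase expression after 8 hours of MG132 stress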
T4 sequence (P38532 whole entry): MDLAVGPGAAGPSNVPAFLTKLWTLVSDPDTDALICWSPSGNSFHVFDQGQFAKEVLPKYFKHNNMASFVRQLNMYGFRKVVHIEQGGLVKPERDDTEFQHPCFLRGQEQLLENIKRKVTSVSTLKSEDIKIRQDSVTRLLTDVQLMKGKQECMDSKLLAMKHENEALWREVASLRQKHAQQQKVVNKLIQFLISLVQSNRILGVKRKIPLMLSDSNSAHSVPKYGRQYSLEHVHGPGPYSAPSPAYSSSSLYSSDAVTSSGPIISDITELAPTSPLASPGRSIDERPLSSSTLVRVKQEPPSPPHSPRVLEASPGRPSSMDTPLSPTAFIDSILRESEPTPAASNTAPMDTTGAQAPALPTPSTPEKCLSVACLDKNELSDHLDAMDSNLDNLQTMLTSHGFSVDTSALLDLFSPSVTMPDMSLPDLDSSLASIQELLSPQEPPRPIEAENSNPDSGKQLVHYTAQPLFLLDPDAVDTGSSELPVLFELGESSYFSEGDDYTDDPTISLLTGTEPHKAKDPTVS

Streptococcus = assay: Group A Streptococcus viability loss, dose response, counter-screen for streptokinase expression inhibitor project, luminescence, BacTiterGlo (AID 1915); type: functional, organism-based;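 further: potency for reduction of bacterial viability or growth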
[10] = test system: Streptococcus sp. 'group A'; assay: growth inhibition of control SK(-) GAS strain, dose response, counter-screen for streptokinase expression inhibitor project, luminescence, kanamycin, BacTiterGlo, confirmation (AID 1900); type: functional, organism-based
Streptokinase A = biological target: T5, Streptokinase A (Streptococcus pyogenes serotype M1, UniProt P10520); assay: S. pyogenes streptokinase expression inhibitors, potency, dose response, plasminogen activation absorbance, OD405 (AID 1914); type: functional, Streptococcus pyogenes M1 GAS;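 further: secreted streptokinase activity via plasminogen activation per viability signal from cell pellet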
T5 sequence (P10520 whole entry): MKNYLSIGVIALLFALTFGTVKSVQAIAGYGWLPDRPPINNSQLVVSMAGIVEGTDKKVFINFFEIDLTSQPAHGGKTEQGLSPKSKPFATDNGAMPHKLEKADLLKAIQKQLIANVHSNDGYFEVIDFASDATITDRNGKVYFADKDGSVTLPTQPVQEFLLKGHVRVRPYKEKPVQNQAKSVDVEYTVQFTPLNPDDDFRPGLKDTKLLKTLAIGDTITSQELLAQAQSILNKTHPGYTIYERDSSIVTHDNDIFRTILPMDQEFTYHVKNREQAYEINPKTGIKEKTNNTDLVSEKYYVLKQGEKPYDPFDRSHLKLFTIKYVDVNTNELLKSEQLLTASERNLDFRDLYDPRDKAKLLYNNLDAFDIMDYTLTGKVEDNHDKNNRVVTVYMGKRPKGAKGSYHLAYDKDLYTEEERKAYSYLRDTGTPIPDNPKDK

[11] = biological target: T6, DNA repair protein RAD52 homolog (Homo sapiens, UniProt P43351); type: functional, biochemical
T6 sequence (P43351 whole entry): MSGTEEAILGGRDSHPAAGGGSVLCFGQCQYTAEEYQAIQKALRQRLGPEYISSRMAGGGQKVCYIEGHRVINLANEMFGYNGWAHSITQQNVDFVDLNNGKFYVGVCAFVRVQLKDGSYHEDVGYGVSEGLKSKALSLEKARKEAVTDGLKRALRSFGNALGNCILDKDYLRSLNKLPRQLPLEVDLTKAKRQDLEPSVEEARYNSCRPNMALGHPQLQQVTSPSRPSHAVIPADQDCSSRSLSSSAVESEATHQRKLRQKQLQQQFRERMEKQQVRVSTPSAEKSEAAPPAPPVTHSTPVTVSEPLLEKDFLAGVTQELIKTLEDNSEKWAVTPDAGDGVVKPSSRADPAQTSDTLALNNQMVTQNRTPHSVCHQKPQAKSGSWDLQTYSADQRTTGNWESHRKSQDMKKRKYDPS

In the case of `N=c1n(CCO)c2ccccc2n1Cc1ccc(Cl)cc1`, the EC50 [1] is reported as 3.35 µM (active).

With `CCn1nccc1C(=O)Nc1cc(Cl)cc(Cl)c1` the EC50 [2] was 7.54 µM (active).

In the case of `Cc1nn(C(C)C(=O)NC(C)CCc2ccccc2)c(=O)c2cc3occc3n12` (stereo not given), the IC50 [3] is reported as 17.4 µM (active).

For `S=C(NCc1ccco1)N1CCN(Cc2ccc(Cl)cc2Cl)CC1`, the EC50 [2] was 4.2 µM (active).

For `COc1ccc(N2CCN(C(=O)CCc3nc(-c4ccc(C)cc4)no3)CC2)cc1`, the EC50 [2] was 2.1 µM (active).

For `Cc1cc(Nc2ccc(C)c(C)c2)c2ccccc2n1`, the EC50 [1] was 2.11 µM (active) and the CC50 [4] was 26.1 µM (active).

For `CC(C)n1c(O)c(C2c3cc(Cl)ccc3Oc3[nH]c(=O)n(C(C)C)c(=O)c32)c(=O)[nH]c1=O` (stereo not given), the AC50 [5] was 5.39 µM (active).

For `N#C/C(=C(/O)c1ccc(-c2cccc([N+](=O)[O-])c2)o1)c1nc2ccccc2s1`, the IC50 [6] was 5.38 µM (active), the EC50 [7] was > 120 µM (not active) and the EC50 [8] was 9.39 µM (active). The EC50 (H4) was > 120 µM (not active).

For `O=C(CSc1nc2ccccc2[nH]1)Nc1ccc(F)c(F)c1`, the EC50 [2] was 6.59 µM (active) and the EC50 [9] was > 195 µM (not active).

With `Cc1cc(C)cc(OC(C)C(=O)Nc2ccc(S(=O)(=O)Nc3cc(C)nc(C)n3)cc2)c1` (stereo not given) the IC50 [3] was 13.2 µM (active).

For `Cc1cccc(OCC(=O)Nc2ccccc2N2CCN(C(=O)C(C)C)CC2)c1C`, the EC50 [2] was 2.13 µM (active).

With `O=C(CSCc1cnn(-c2ccccc2)c1-n1cccc1)NCc1ccc2c(c1)OCO2` the EC50 [2] was 2.98 µM (active).

For `CCCCCCCCCCCCOC(=O)C[N+](C)(C)C`, the EC50 (Streptococcus) was 10.6 µM (active), the EC50 [10] was 3.32 µM (active) and the EC50 [1] was 2.99 µM (active). The EC50 (Streptokinase A) was 20.7 µM (active) and the AC50 [11] was 26.4 µM (active).

In the case of `Cc1[nH]c2ccc(C(=O)OC(C)C(=O)N(C)c3ccccc3)cc2c1C` (stereo not given), the EC50 [1] is reported as 0.749 µM (active).

In the case of `COc1cc(C(=O)N(CCc2ccccc2)C2=CC3CCC(C2)N3C)cc(OC)c1OC` (stereo not given), the EC50 [1] is reported as 0.335 µM (active).

For `Cc1ccccc1C(=O)c1cccn1CC(=O)NC(C)c1ccccc1` (stereo not given), the IC50 [3] was 12.6 µM (active).
